Laboratory results as given in PubChem BioAssay AID276 (DTP/NCI, 2004).
“And” between values parts separate entries of the source, which are not always exact repeats. Identical values can stand only once. Toxic doses and inconclusive results are not listed. How the source made its calls: active means survival T/C of 150% or more; inactive means T/C below 125% in these data.

Test system: B6C3F1 mice, Lewis lung carcinoma iv, survival T/C
Assay: NCI In Vivo Anticancer Drug Screen. Data for tumor model Lewis Lung Carcinoma (intravenous) in B6C3F1 mice
Details: endpoint: median survival time, schedule: Q01DX009 (ip), higher = longer survival
Outline: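 Transplantable tumor in mice; compound treated vs vehicle controls; read-out survival; value = treated/control (T/C).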

[1] = dose: 6.25 mg/kg/injection, vehicle: saline with Tween-80
[2] = dose: 12.5 mg/kg/injection, vehicle: saline with Tween-80
[3] = dose: 100.0 mg/kg/injection, vehicle: Klucel (hydroxypropylcellulose) (HPC)
[4] = dose: 6.25 mg/kg/injection, vehicle: water
[5] = dose: 12.5 mg/kg/injection, vehicle: water
[6] = dose: 25.0 mg/kg/injection, vehicle: water
[7] = dose: 50.0 mg/kg/injection, vehicle: water
[8] = dose: 6.25 mg/kg/injection, vehicle: saline
[9] = dose: 12.5 mg/kg/injection, vehicle: saline
[10] = dose: 25.0 mg/kg/injection, vehicle: saline
[11] = dose: 12.5 mg/kg/injection, vehicle: suspension in saline
[12] = dose: 25.0 mg/kg/injection, vehicle: suspension in saline
[13] = dose: 50.0 mg/kg/injection, vehicle: suspension in saline
[14] = dose: 100.0 mg/kg/injection, vehicle: suspension in saline
[15] = dose: 200.0 mg/kg/injection, vehicle: suspension in saline
[16] = dose: 25.0 mg/kg/injection, vehicle: saline with Tween-80
[17] = dose: 50.0 mg/kg/injection, vehicle: saline with Tween-80
[18] = dose: 200.0 mg/kg/injection, vehicle: saline with Tween-80
[19] = dose: 400.0 mg/kg/injection, vehicle: saline with Tween-80
[20] = dose: 100.0 mg/kg/injection, vehicle: saline with Tween-80

Measured: T/C

C[CH2][Sn]([CH2]C)([CH2]C(=O)OC)[CH2]C(=O)OC
inactive: dose: 0.78 mg/kg/injection, vehicle: saline with Tween-80 102 % of control | dose: 1.56 mg/kg/injection, vehicle: saline with Tween-80 104 % of control | dose: 3.12 mg/kg/injection, vehicle: saline with Tween-80 99 % of control | [1] 101 % of control | [2] 104 % of control and 105 % of control

Cc1cc(NC(=S)SCc2ccc3c(c2)OCO3)ccc1Cl
inactive: dose: 25.0 mg/kg/injection, vehicle: Klucel (hydroxypropylcellulose) (HPC) 114 % of control | dose: 50.0 mg/kg/injection, vehicle: Klucel (hydroxypropylcellulose) (HPC) 114 % of control | [3] 115 % of control

COc1cc(NCc2ccc3nc(N)nc(N)c3c2C)cc(OC)c1OC
inactive: dose: 3.12 mg/kg/injection, vehicle: water 94 % of control | [4] 102 % of control | [5] 97 % of control and 124 % of control | [6] 101 % of control and 111 % of control | [7] 113 % of control and 117 % of control

CCCC(=O)O.CCCC(=O)O.CCCC(=O)O.CCCC(=O)O.[Rh].[Rh]
inactive: dose: 0.03 mg/kg/injection, vehicle: saline + alcohol 95 % of control | dose: 0.06 mg/kg/injection, vehicle: saline + alcohol 97 % of control and 100 % of control | dose: 0.12 mg/kg/injection, vehicle: saline + alcohol 93 % of control and 100 % of control | dose: 0.25 mg/kg/injection, vehicle: saline + alcohol 91 % of control and 102 % of control | dose: 0.5 mg/kg/injection, vehicle: saline + alcohol 92 % of control and 97 % of control | dose: 1.0 mg/kg/injection, vehicle: saline + alcohol 91 % of control and 96 % of control

COC(=O)Nc1nc2ccc(C3(c4ccc(F)cc4)OCCO3)cc2[nH]1
inactive: dose: 1.56 mg/kg/injection, vehicle: saline 97 % of control | dose: 3.12 mg/kg/injection, vehicle: saline 106 % of control | [8] 102 % of control | [9] 104 % of control | [10] 117 % of control

CC(C)N1CC(COc2cccc3ccccc23)OP1(=O)N(CCCl)CCCl (configuration not stated)
inactive: dose: 1.56 mg/kg/injection, vehicle: distilled water + Tween-80 98 % of control | dose: 3.13 mg/kg/injection, vehicle: distilled water + Tween-80 96 % of control | dose: 6.25 mg/kg/injection, vehicle: distilled water + Tween-80 101 % of control | dose: 12.5 mg/kg/injection, vehicle: distilled water + Tween-80 102 % of control | dose: 25.0 mg/kg/injection, vehicle: distilled water + Tween-80 102 % of control | dose: 50.0 mg/kg/injection, vehicle: distilled water + Tween-80 95 % of control | dose: 100.0 mg/kg/injection, vehicle: distilled water + Tween-80 106 % of control | dose: 200.0 mg/kg/injection, vehicle: distilled water + Tween-80 90 % of control | dose: 400.0 mg/kg/injection, vehicle: distilled water + Tween-80 90 % of control

O=c1[nH]cnc2[nH]ncc12
inactive: [11] 95 % of control | [12] 105 % of control | [13] 95 % of control | [14] 106 % of control | [15] 112 % of control | dose: 400.0 mg/kg/injection, vehicle: suspension in saline 120 % of control

CC1/C=C/C=C/CC/C=C/C=C/C=C/C=C/C(OC2OC(C)C(O)C(N)C2O)CC2OC(CC(O)C(O)CCC(O)CC(O)CC(O)CC(=O)OC(C)C(C)C1O)CC(O)C2C(=O)O (configuration not stated)
inactive: [1] 103 % of control | [2] 103 % of control | [16] 98 % of control | [17] 101 % of control

NC(CNC(=O)CBr)C(=O)O (configuration not stated)
inactive: [4] 102 % of control | [5] 95 % of control | [6] 109 % of control | [7] 109 % of control

CC(=O)[C@]1(O)Cc2c(O)c3c(c(O)c2[C@@H](OC2CC(N)C(O)C(C)O2)C1)C(=O)c1c(O)cccc1C3=O (some centres not stated)
inactive: dose: 0.03 mg/kg/injection, vehicle: saline 107 % of control | dose: 0.06 mg/kg/injection, vehicle: saline 96 % of control | dose: 0.12 mg/kg/injection, vehicle: saline 108 % of control | dose: 0.25 mg/kg/injection, vehicle: saline 117 % of control

COc1ccc(/C=C/C(=O)c2cc(C(=O)O)c(OC)cc2OC)cc1OC
inactive: [11] 98 % of control | [12] 104 % of control | [13] 98 % of control | [14] 90 % of control | [15] 95 % of control

NS(=O)(=O)OCCCCCCCOS(N)(=O)=O
inactive: [2] 91 % of control | [16] 98 % of control | [17] 88 % of control

O=S(=O)(SC(S(=O)(=O)c1ccccc1)S(=O)(=O)c1ccccc1)c1ccccc1
inactive: [3] 100 % of control | dose: 200.0 mg/kg/injection, vehicle: Klucel (hydroxypropylcellulose) (HPC) 102 % of control | dose: 400.0 mg/kg/injection, vehicle: Klucel (hydroxypropylcellulose) (HPC) 98 % of control

C/C(=N\N=C(/[Se])N1CC2CCC(CC2)C1)c1ccccn1
inactive: dose: 1.5 mg/kg/injection, vehicle: Klucel (hydroxypropylcellulose) (HPC) 106 % of control | dose: 3.0 mg/kg/injection, vehicle: Klucel (hydroxypropylcellulose) (HPC) 103 % of control | dose: 6.25 mg/kg/injection, vehicle: Klucel (hydroxypropylcellulose) (HPC) 110 % of control

BrC1CC(Br)c2c1c1c(c3c2C(Br)CC3Br)C(Br)CC1Br (configuration not stated)
inactive: [2] 99 % of control | [16] 103 % of control | [17] 92 % of control | [18] 121 % of control | [19] 112 % of control

COc1cc(C(=O)N/N=C/c2cccc([N+](=O)[O-])c2)cc(OC)c1OC
inactive: [16] 97 % of control | [17] 98 % of control | [20] 105 % of control | [18] 93 % of control | [19] 101 % of control

O=c1n(CC2CO2)c(=O)n(CC2CO2)n1CC1CO1 (configuration not stated)
inactive: [8] 100 % of control | [9] 108 % of control | [10] 108 % of control

CN(C)c1nc(N(C)C)nc(N(C)C)n1
inactive: [16] 101 % of control | [17] 114 % of control | [20] 109 % of control | [18] 111 % of control

CCCCC(=O)OCC1OC(n2cnc3c(=S)nc[nH]c32)C(OC(=O)CCCC)C1OC(=O)CCCC (configuration not stated)
inactive: [2] 99 % of control | [16] 100 % of control

O=C1N(CC2CO2)CCN1CC1CO1 (configuration not stated)
inactive: [9] 114 % of control | [10] 112 % of control | dose: 50.0 mg/kg/injection, vehicle: saline 114 % of control
